{"source": "paper PMC6318325", "about": "“The conformational changes coupling ATP hydrolysis and translocation in a bacterial DnaB helicase” (Nature Communications, 2019)", "key": {"[1]": {"target": "T1, HpDnaB (DnaB) (Helicobacter pylori, UniProt O25916)", "T1 construct": "full length (488 residues), no tag stated (heparin and anion exchange purification); pACYC-duet1, E. coli BL21 Star (DE3); 13C-15N labelled for NMR; hexameric assembly, dodecamer named in anisotropy assay; nucleotide site at interface of two monomers", "T1 sequence (O25916 1-488)": "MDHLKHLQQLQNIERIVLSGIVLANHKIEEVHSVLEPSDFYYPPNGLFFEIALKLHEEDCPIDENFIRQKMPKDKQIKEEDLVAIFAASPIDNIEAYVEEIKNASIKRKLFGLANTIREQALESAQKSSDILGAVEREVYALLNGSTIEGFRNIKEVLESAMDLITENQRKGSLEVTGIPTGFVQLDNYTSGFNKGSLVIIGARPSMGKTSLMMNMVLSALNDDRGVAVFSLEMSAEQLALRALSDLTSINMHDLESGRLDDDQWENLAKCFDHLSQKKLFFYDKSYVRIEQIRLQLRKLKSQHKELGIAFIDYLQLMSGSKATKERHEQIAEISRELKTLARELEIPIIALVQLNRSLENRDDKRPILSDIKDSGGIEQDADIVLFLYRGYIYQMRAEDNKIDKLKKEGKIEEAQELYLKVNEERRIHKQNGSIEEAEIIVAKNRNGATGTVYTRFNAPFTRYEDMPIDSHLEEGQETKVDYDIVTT", "test": "solid-state […] CP and […] MAS NMR of sedimented complex", "conditions": "no DNA, NMR at 278 K, nucleotide-binding domain"}, "[2]": {"target": "T1, HpDnaB (DnaB)", "test": "[…] solid-state NMR, ATP turned over to ADP during sample preparation", "type": "biochemical", "conditions": "5 mM MgCl2, 5 mM ATP, pH 7.5, 130 mM NaCl, 4 °C, no DNA"}, "[3]": {"target": "T2, HpDnaB replicative helicase (Helicobacter pylori, UniProt O25916 1-488)", "T2 sequence": "T1 sequence (O25916 1-488)", "test": "fluorescence anisotropy; 0.5 mM AMP-PCP, 5 mM MgCl2; Hill fit; Supplementary Table 4 fit instead prints 47.43 +/- 2.648, h 0.7349 (column order inferred); Anisotropy: 20 mM Hepes pH 7.5, 5 mM MgCl2, 50 mM potassium acetate, 5% glycerol, 0.2 mg/ml BSA, 0.5 mM nucleotide, 1 nM DNA, 0-8 uM DnaB (dodecamer), temperature not stated; NMR: protein buffer 2.5 mM sodium phosphate pH 7.5, 130 mM NaCl, 278 K", "conditions": "protein: recombinant; chain copies: 12; label: 5'-FAM; single strand"}, "[4]": {"target": "T2, HpDnaB replicative helicase", "test": "fluorescence anisotropy; 0.5 mM ATP, 5 mM MgCl2; Hill fit h 0.6509; Anisotropy: 20 mM Hepes pH 7.5, 5 mM MgCl2, 50 mM potassium acetate, 5% glycerol, 0.2 mg/ml BSA, 0.5 mM nucleotide, 1 nM DNA, 0-8 uM DnaB (dodecamer), temperature not stated; NMR: protein buffer 2.5 mM sodium phosphate pH 7.5, 130 mM NaCl, 278 K", "conditions": "protein: recombinant; chain copies: 12; label: 5'-FAM; single strand"}, "[5]": {"target": "T2, HpDnaB replicative helicase", "test": "fluorescence anisotropy; 0.5 mM ADP:AlF4-, 5 mM MgCl2; Hill fit h 1.160; Anisotropy: 20 mM Hepes pH 7.5, 5 mM MgCl2, 50 mM potassium acetate, 5% glycerol, 0.2 mg/ml BSA, 0.5 mM nucleotide, 1 nM DNA, 0-8 uM DnaB (dodecamer), temperature not stated; NMR: protein buffer 2.5 mM sodium phosphate pH 7.5, 130 mM NaCl, 278 K", "conditions": "protein: recombinant; chain copies: 12; label: 5'-FAM; single strand"}}, "data": [{"molecule": "Nc1ncnc2c1ncn2[C@@H]1O[C@H](COP(=O)(O)OP(=O)(O)O)[C@@H](O)[C@H]1O", "note": "[ADP]", "values": [{"measurement": "solid-state 31P CP and 13C MAS NMR of sedimented complex", "setting": "[1]; 5 mM MgCl2, 5 mM ADP, pH 7.5, 130 mM NaCl", "result": "The nucleotides are thus indeed bound to the protein."}]}, {"molecule": "Nc1ncnc2c1ncn2[C@@H]1O[C@H](COP(=O)(O)OP(=O)(O)OP(=O)(O)O)[C@@H](O)[C@H]1O", "note": "[ATP]", "values": [{"measurement": "31P solid-state NMR, ATP turned over to ADP during sample preparation", "setting": "[2]", "result": "Addition of ATP to the apo form yields the ADP spectrum, implying that ATP is hydrolyzed"}]}, {"molecule": "Nc1ncnc2c1ncn2[C@@H]1O[C@H](COP(=O)(O)OP(=O)(O)CP(=O)(O)O)[C@@H](O)[C@H]1O", "note": "[AMP-PCP]", "values": [{"measurement": "solid-state 31P CP and 13C MAS NMR of sedimented complex", "setting": "[1]; 5 mM MgCl2, pH 7.5, 130 mM NaCl, 15 mM nucleotide", "result": "The nucleotides are thus indeed bound to the protein."}]}, {"molecule": "TTTTTTTTTTTTTTTTTTTT (ssDNA)", "note": "[5'-FAM-(dT)20]", "values": [{"measurement": "Kd", "setting": "[3]", "result": "58 ± 14", "unit": "nM"}, {"measurement": "Kd", "setting": "[4]", "result": "14 ± 3", "unit": "nM"}, {"measurement": "Kd", "setting": "[5]", "result": "0.83 ± 0.03", "unit": "nM"}]}]}
